From publication PMC4090575, “An In Vivo Microdialysis Study of FLZ Penetration through the Blood-Brain Barrier in Normal and 6-Hydroxydopamine Induced Parkinson's Disease Model Rats” (BioMed Research International, 2014)
Where two headings read alike, the source gives them in different places. Values belong to the molecule of their own block, whether it stands above or below them.

What was measured:
[1] = In vivo microdialysis pharmacokinetics of free FLZ in blood and brain dialysates, with or without zosuquidar·3HCl pretreatment; set-up: species or system rat; conditions: for AUC, Brain / AUC: n = 3; for AUC / clearance / half-life / unbound brain-to-blood AUC ratio (Kp,uu): rat, 35 mg/kg; for clearance: read-out: CLz, Blood (converted); for unbound brain-to-blood AUC ratio (Kp,uu): brain dialysate / blood dialysate, BBB penetration ratio of free FLZ, read-out: Ri (AUCbrain/AUCblood)
Protocol: (§1) Rats were divided into four groups (n = 3 animals per group): three normal rats treated with FLZ only (FLZ only-N); three PD rats treated with FLZ only (FLZ only-PD); three normal rats treated with FLZ plus zosuquidar·3HCl (FLZ + ZOSUQ-N); and three PD rats treated with FLZ plus zosuquidar·3HCl (FLZ + ZOSUQ-PD). The system was equilibrated for 1 h after surgery. FLZ was dissolved in a mixture of dimethyl sulfoxide, polyethylene glycol 400, and sodium chloride injection (1 : 4 : 5 (v/v/v)). All rats received FLZ (35 mg/kg) via intravenous injection into the tail vein (with or without pretreatment with zosuquidar·3HCl). Rats in the FLZ + ZOSUQ-N and FLZ + ZOSUQ-PD groups received an i.v. injection of zosuquidar·3HCl (20 mg/kg, dissolved in 20% ethanol-saline) 10 min before FLZ administration. The dose, route of administration, and timing of P-gp inhibition were based on those described in earlier studies. Microdialysis samples were collected from the striatum and the jugular vein at 15 min intervals for 1 h before (blanks) and for 4 h after FLZ administration. The samples were stored at −80°C until they were analysed by ultraperformance liquid chromatography-tandem mass spectrometry (UPLC-MS/MS). At the end of the experiment, the rats were decapitated and the brains were removed for histological verification of probe placement. Data were discarded if the probe placement was outside the target area.
(§2) The microdialysis system comprised a CMA 470 refrigerated fraction collector, a CMA 402 syringe pump, and fluorinated ethylene propylene tubing (CMA, Solna, Sweden). CMA microdialysis probes for the blood (CMA 20, 10 mm in length) and brain (CMA 12, 4 mm in length) were also used. Animals were anaesthetized with urethane (1.4 g/kg, i.p.) before surgery and remained anesthetized throughout the experimental period. The body temperature of each rat was maintained at 37°C until the end of the experiment using a heating pad. The blood microdialysis probe was positioned within the jugular vein toward the right atrium and sutured to the surrounding muscle to prevent it from slipping out. The probe was then perfused with heparinized ringer's solution (1500 U/mL) for 15 min. The microdialysis guide cannula was implanted into the right striatum zone (anterior-posterior: 0.2 mm; lateral: 3.0 mm; dorsal-ventral: 3.5 mm from bregma) and fixed to the skull with stainless steel screws and dental acrylic. The brain microdialysis probe was inserted through the guide cannula.
(§3) In the pilot microdialysis experiment, ringer's solution was perfused through the probe at a flow rate of 1.5 μL/min and the dialysate samples were collected every 15 min from 90 min before until 6 h after dosing with FLZ. In all the other groups, the probes were perfused with ringer's solution containing 4% BSA, with the flow rate set at 1.0 μL/min.
(§4) The relative recovery of FLZ using the microdialysis probe was estimated using a retrodialysis method after sample collection and clearing overnight until there is no drug in the tissue and blood. Perfusates containing FLZ (20 ng/mL for the brain and 200 ng/mL for the blood) were passed separately into the brain and blood through the microdialysis probes at a constant flow rate of 1 μL/min. After a 1-hour stabilization period, the dialysates were collected at 15 min intervals for 1 hour. The concentrations of FLZ in the dialysate (C out) and perfusate (C in) were analysed by UPLC-MS/MS as described in Section 2.7. Recovery (R) was expressed by the following equation: R = 1 − (C out/C in).
(§5) Pharmacokinetic parameters were calculated from the observed data by noncompartmental analysis using the Drug and Statistics for Windows software package (DAS, version 2.0, Chinese Pharmacological Association, China). […]

P-gp = assay: as above; set-up: species or system rat; conditions: rat, iv, with zosuquidar·3HCl 20 mg/kg i.v. 10 min before FLZ; for AUC / clearance / half-life: 35 mg/kg; for AUC: zosuquidar·3HCl 20 mg/kg i.v. 10 min before FLZ 35 mg/kg i.v., n = 3; for clearance / half-life / unbound brain-to-blood AUC ratio (Kp,uu): zosuquidar·3HCl 20 mg/kg i.v. pretreatment, FLZ 35 mg/kg i.v.; for clearance: read-out: CLz, Blood (converted); for unbound brain-to-blood AUC ratio (Kp,uu): brain dialysate / blood dialysate, read-out: Ri (AUCbrain/AUCblood)
Protocol: as §1, §2, §3, §4, §5

[2] = Stability of FLZ in UPLC-MS/MS method validation; assay type: physicochemical; conditions: during preparation, after three freeze/thaw cycles and after storing at −80°C for 45 days
Protocol: Stock solutions of FLZ and IS were prepared separately in methanol at a target concentration of 1 mg/mL and then diluted with methanol to create working solutions of FLZ at concentrations of 1, 3, 10, 30, 100, 300, 1000, 1500, 2500, 5000, 10000, and 15000 ng/mL and IS at concentrations of 10 ng/mL. All solutions were stored in glass tubes at 4°C for less than 2 months until analysis and were protected from light. FLZ calibration standards (0.1, 0.3, 1, 3, 10, 30, 100, 150, 250, 500, 1000, and 1500 ng/mL) were prepared by spiking the blank perfusate with the appropriate working standard solution of FLZ. Quality control samples were prepared using the working solutions from the same stock solution (0.1, 0.3, 1, 10, 100, and 1000 ng/mL), thereby representing the entire range of concentrations.
Assay validation to meet the acceptance criteria was performed according to the bioanalytical method validation guideline (European Medicines Agency Guideline on Bioanalytical Method Validation, July 21, 2011). The assay was validated in terms of specificity, matrix effect, recovery, calibration curve, precision, accuracy (intra- and interday), lower limit of quantification (LLOQ), and stability (autosampler, freeze-thaw, and long-term).

[3] = set-up: method as in PMID 22472186; conditions: cited from earlier work
plasma proteins = system: plasma proteins; set-up: method as in Our previous work; conditions: ref Our previous work; cited from earlier work
[4] = stated with the material supplied; source not given; cited from earlier work
[5] = system: P-gp mediated multidrug resistance; set-up: method as in PMID 9381979; conditions: high therapeutic index; cited from earlier work
[6] = FLZ + ZOSUQ-N group relative to FLZ only-N group, normal rats
[7] = FLZ + ZOSUQ-PD group relative to FLZ only-PD group, PD rats
[8] = blood (jugular vein) dialysate, FLZ + ZOSUQ-N: normal rats, blood dialysate
[9] = blood (jugular vein) dialysate, FLZ + ZOSUQ-PD: 6-OHDA PD rats, blood dialysate

reduction in FLZ blood dialysate AUC ([1]; FLZ + ZOSUQ-N group compared with FLZ only-N group, normal rats, not statistically significant): 34% | increase in brain : blood free FLZ AUC ratio [1, 6]: 3 fold | increase in mean brain dialysate FLZ AUC [1, 6]: 123% | AUC, Brain ([1]; FLZ + ZOSUQ-N: normal rats, zosuquidar·3HCl 20 mg/kg i.v. pretreatment, FLZ 35 mg/kg i.v., brain dialysate): 324 ± 46∗∗ μg/L × h | decrease in FLZ blood dialysate AUC [1, 7]: 56% | increase in FLZ brain dialysate AUC [1, 7]: 130% | increase in brain : blood free FLZ AUC ratio [1, 7]: 4 fold | AUC, Brain ([1]; FLZ + ZOSUQ-PD: 6-OHDA PD rats, zosuquidar·3HCl 20 mg/kg i.v. pretreatment, FLZ 35 mg/kg i.v., brain dialysate): 333 ± 103∗ μg/L × h | AUC, Brain ([1]; FLZ only-N: normal rats, FLZ 35 mg/kg i.v., brain (striatum) dialysate): 145 ± 25 µg·h/L | decrease in brain : blood free FLZ AUC ratio ([1]; FLZ only-PD group relative to FLZ only-N group, not statistically significant): 20% | AUC, Brain ([1]; FLZ only-PD: 6-OHDA PD rats, FLZ 35 mg/kg i.v., brain (striatum) dialysate): 145 ± 18 µg·h/L | AUC ([1]; blood (jugular vein) dialysate, iv, FLZ only-N: normal rats, FLZ 35 mg/kg i.v., blood dialysate, free FLZ): 2350 ± 39 ng·h/mL | clearance ([1]; blood (jugular vein) dialysate, iv, FLZ only-N: normal rats, FLZ 35 mg/kg i.v., blood dialysate): 248 mL/min/kg | half-life ([1]; blood (jugular vein) dialysate, iv, FLZ only-N: normal rats, FLZ 35 mg/kg i.v., blood dialysate, read-out: t 1/2, Blood (converted)): 1.21 ± 0.22 h | AUC ([1]; blood (jugular vein) dialysate, iv, FLZ only-PD: 6-OHDA PD rats, FLZ 35 mg/kg i.v., blood dialysate, free FLZ): 3070 ± 621 ng·h/mL | clearance ([1]; blood (jugular vein) dialysate, iv, FLZ only-PD: 6-OHDA PD rats, FLZ 35 mg/kg i.v., blood dialysate): 195 mL/min/kg | half-life ([1]; blood (jugular vein) dialysate, iv, FLZ only-PD: 6-OHDA PD rats, FLZ 35 mg/kg i.v., blood dialysate, read-out: t 1/2, Blood (converted)): 1.34 ± 0.03 h | half-life ([1]; blood dialysate and brain dialysate, intravenous, present study, both in the blood and brain, free FLZ, read-out: t 1/2 of FLZ (converted)): ~1.1 h | half-life ([1]; brain (striatum) dialysate, iv, FLZ only-N: normal rats, FLZ 35 mg/kg i.v., brain dialysate, read-out: t 1/2, Brain (converted)): 1.15 ± 0.57 h | half-life ([1]; brain (striatum) dialysate, iv, FLZ only-PD: 6-OHDA PD rats, FLZ 35 mg/kg i.v., brain dialysate, read-out: t 1/2, Brain (converted)): 1.31 ± 0.29 h | unbound brain-to-blood AUC ratio (Kp,uu) ([1]; iv, FLZ only-N: normal rats, FLZ 35 mg/kg i.v.): 0.0617 ± 0.0105 | unbound brain-to-blood AUC ratio (Kp,uu) ([1]; iv, FLZ only-PD: 6-OHDA PD rats, FLZ 35 mg/kg i.v.): 0.0492 ± 0.0158 | AUC (P-gp; [8]): 1560 ± 881 ng·h/mL | clearance (P-gp; [8]): 473 mL/min/kg | half-life (P-gp; blood (jugular vein) dialysate, FLZ + ZOSUQ-N: normal rats, blood dialysate, read-out: t 1/2, Blood (converted)): 1.11 ± 0.13 h | AUC (P-gp; [9]): 1330 ± 259 ng·h/mL | clearance (P-gp; [9]): 447 mL/min/kg | half-life (P-gp; blood (jugular vein) dialysate, FLZ + ZOSUQ-PD: 6-OHDA PD rats, blood dialysate, read-out: t 1/2, Blood (converted)): 1.43 ± 0.25 h | half-life (P-gp; brain (striatum) dialysate, FLZ + ZOSUQ-N: normal rats, brain dialysate, read-out: t 1/2, Brain (converted)): 1.04 ± 0.43 h | half-life (P-gp; brain (striatum) dialysate, FLZ + ZOSUQ-PD: 6-OHDA PD rats, brain dialysate, read-out: t 1/2, Brain (converted)): 1.14 ± 0.27 h | unbound brain-to-blood AUC ratio (Kp,uu) (P-gp; FLZ + ZOSUQ-N: normal rats): 0.248 ± 0.114 | unbound brain-to-blood AUC ratio (Kp,uu) (P-gp; FLZ + ZOSUQ-PD: 6-OHDA PD rats): 0.246 ± 0.027 | stability of FLZ [2]: remained stable
Compound: COc1ccc(OC)c(C(=Cc2ccc(O)c(OC)c2)C(=O)NCCc2ccc(O)cc2)c1 [FLZ, N-[2-(4-hydroxy-phenyl)-ethyl]-2-(2,5-dimethoxy-phenyl)-3-(3-methoxy-4-hydroxy-phenyl)-acrylamide]
increase in FLZ brain-to-plasma ratio with zosuquidar·3HCl pretreatment versus control ([3]; 0.25 min postdose, brain homogenate-to-plasma concentration ratio): about 3.1 fold | t 1/2 of FLZ reported previously [3]: about 0.5 h | binding rate of FLZ to plasma proteins (plasma proteins): about 90% | lipophilicity [4]: lipophilic | pKa [4]: 13.75 ± 0.46 | water solubility [4]: poorly water-soluble

Compound: Cl.Cl.Cl.O[C@@H](COc1cccc2ncccc12)CN1CCN([C@@H]2c3ccccc3[C@@H]3[C@H](c4ccccc42)C3(F)F)CC1 [Zosuquidar·3HCl, zosuquidar trihydrochloride]
active doses in in vivo antitumor efficacy experiments [5]: 1 to 30 mg/kg
